Measured values reported in PubChem BioAssay AID1159559 (GlaxoSmithKline (GSK), 2015).
The source made the active and inactive calls.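 How the source made its calls: active means compounds whose IC50 against parasite growth in infected mouse cells is below 50000 nM; inactive means the rest.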

System: T. cruzi Tulahuen in NIH-3T3, beta-gal fluorescence, 4 d
Experiment: T. cruzi intracellular growth inhibition, cell-based (AID 1159559)

SMILES	IC50
COc1ccccc1-n1c(SCC(=O)Nc2ccc3c(c2)OCO3)nc2c(c1=O)SCC2	40000 nM
COc1ccc(C)cc1-c1csc(NC(=O)C(C)n2ccnc2)n1 (centres undefined)	63 nM
CNC(=O)C1Cc2ccccc2N1C(=O)Cc1ccc(OC)cc1 (centres undefined)	> 50000 nM (inactive)
COc1ccc(CN2CCCCC2c2nc(-c3cccnc3)no2)cc1 (centres undefined)	790 nM
Fc1ccccc1N1C[C@H]2CCN(c3cccnc3)C[C@H]2C1	200 nM
O=C(CC1(O)C(=O)N(Cc2cccs2)c2ccc(Br)cc21)c1cccnc1 (centres undefined)	5000 nM
CCc1cccc(CC)c1-n1c(SCC(=O)NC(=O)NCc2ccco2)nnc1-c1cccnc1	13000 nM
N#Cc1cccc(Nc2nccc(N3CCC(NS(=O)(=O)c4cccc(C#N)c4)CC3)n2)c1	1600 nM
Cc1ccc(S(=O)(=O)Nc2ccc(CN3CCN(C(=O)c4cccc(C#N)c4)CC3)cc2)cc1	500 nM
N#Cc1nc(C=Cc2ccccc2)oc1NCc1cccnc1	250 nM
Cc1cn[nH]c1C1CCCN(Cc2nc3ccccc3n2C)C1 (centres undefined)	3200 nM
O=C(Cc1ccccc1)Nc1[nH]nc2sc(C(=O)NC3CCCC3)cc12	7900 nM
Cc1nnnn1-c1cccc(C(=O)N2CCC[C@@]3(C)c4ncncc4CCC23)c1 (some centres undefined)	630 nM
CN(C)S(=O)(=O)c1cccc(CSc2nnc(-c3ccc4c(c3)OCO4)o2)c1	500 nM
CNC(=O)C1Cc2ccccc2N1C(=O)Cc1ccccc1 (centres undefined)	> 50000 nM (inactive)
Cc1[nH]nc(Nc2ccnc3[nH]ccc23)c1C	4000 nM
O=C(Nc1nc(-c2ccccn2)cs1)c1ccc(S(=O)(=O)N2CCCCC2)cc1	630 nM
O=C(NC(CO)c1ccc(F)cc1)c1ccc(-c2c[nH]c3ncccc23)s1 (centres undefined)	10000 nM
COc1ccc(OC)c(S(=O)(=O)N(Cc2c(F)cccc2F)[C@@H]2CCN(C#N)C2)c1	6300 nM
Nc1nonc1-c1nc2cncc(C(=O)N3CC[C@H](N)C3)c2n1CC1CC1	> 50000 nM (inactive)
Cc1cc(N(C)C)nc2ccc(Cc3cnc(N)nc3N)cc12	1300 nM
CC1=C(C(=O)Nc2ccc(Cl)cc2)C(c2ccncc2)n2ncc(C(=O)Nc3ccccc3)c2N1 (centres undefined)	20 nM
NC(=O)c1ccc(-c2cccc(OCCN3CCN(C4CCCCC4)CC3)c2)cc1	1600 nM
Cc1ccc2onc(Nc3ccnc(Nc4cccc(S(C)(=O)=O)c4)n3)c2c1	4000 nM
CN(Cc1nnnn1C1CCN(Cc2ccc(-n3ccnc3)cc2)CC1)c1ccc(F)cc1F	320 nM
CCC(c1ccc(F)cc1)n1cncc1-c1cnn(C)c1 (centres undefined)	200 nM
Cc1ccccc1NS(=O)(=O)c1ccc2[nH]cc(C(=O)NC3CCCC(C)C3C)c(=O)c2c1 (centres undefined)	5000 nM

SMILES	IC50
CCn1c(NC(=O)Cc2ccc(F)cc2)nc2ccccc21	5000 nM
CN(C)Cc1ccc(-c2ccc(S(=O)(=O)NCC3CCCO3)c(F)c2)cc1 (centres undefined)	1300 nM
O=C(Nc1cccc(Cl)c1)Nc1ccc([N+](=O)[O-])cc1Cl	1300 nM
O=C(CN1CCC2(O)CCCCC2C1c1ccc2c(c1)OCO2)Nc1ccc(Cl)cc1Cl (centres undefined)	13000 nM
COc1cnc2ccc(=O)n(CCN3CCC(NC/C=C/c4cc(F)ccc4F)CC3)c2c1	16 nM
NCc1ccc2c(Cl)cc(Cl)c(O)c2n1	2500 nM
COc1ccc(NC(=O)c2ccc(NC(=O)CN(c3ccccc3C)S(C)(=O)=O)cc2)cc1	32000 nM
c1ccc2[nH]c(-c3ccc(N4CCCC4)nc3)nc2c1	1000 nM
c1ccc2c(CCOc3nccnc3-c3ccncc3)c[nH]c2c1	130 nM
Cc1nn(C2CCS(=O)(=O)C2)c(C)c1CN(C)C(=O)C=Cc1sc2ccccc2c1Cl (centres undefined)	630 nM
Oc1c(-c2n[nH]c(Cc3ccc(F)cc3)n2)ncc2cccnc12	160 nM
O=C(c1ccccc1)N1CCC(C(=O)N2CCC(Oc3ccccc3Cl)CC2)CC1	2000 nM
COc1ccc(NS(=O)(=O)c2cc(NC(=O)c3ccc([N+](=O)[O-])s3)ccc2OC)cc1	63 nM
Cc1cccnc1NC(=O)c1cccc(OCc2c(C)noc2C)c1	> 50000 nM (inactive)
Cc1ccc(C)c(CN2C(=O)NC3(CCc4ccccc43)C2=O)c1 (centres undefined)	25000 nM
O=C(Nc1ccc(-c2nc3ccccc3c(=O)[nH]2)cc1)c1cccs1	3200 nM
CCOc1ccc(CC(=O)N2c3ccccc3CC2C(=O)NC)cc1 (centres undefined)	> 50000 nM (inactive)
COc1ccc(-c2csc(NC(=O)c3ccc([N+](=O)[O-])s3)n2)cc1	160 nM
COc1cc(C(C)C)c(S(C)(=O)=O)cc1C(=O)N1CCN(c2ccccc2Cl)CC1	1600 nM
O=C(CSc1nnc(-c2ccc3c(c2)OCO3)o1)N(Cc1ccco1)CC(F)(F)F	10000 nM
CCCN1CCN(Cc2ccc(S(=O)(=O)Nc3cccc(C)c3)cc2)CC1	790 nM
CC(Cn1ccnc1)NC(=O)COc1ccc(Cl)c(Cl)c1 (centres undefined)	200 nM
NC(=O)c1cc(F)ccc1Nc1nc(NC2CCC(O)CC2)ncc1Cl (centres undefined)	4000 nM
CCOc1ccc(OCC(=O)N2c3ccccc3CC2C(=O)NC)cc1 (centres undefined)	> 50000 nM (inactive)
Cc1cc(=O)n2nc(Oc3ccc(C#N)cc3Cl)sc2n1	16000 nM
COc1cc(F)c2ncc(F)c(CCN3CC[C@H](NCc4cc5c(cn4)OCS5)[C@@H](O)C3)c2c1	400 nM
O=c1cc(NCCCNCc2c[nH]c3ccc(Br)cc23)[nH]c2ccccc12	> 50000 nM (inactive)
